Assay results reported in ChEMBL document CHEMBL1201862, “PubChem BioAssay data set” (2004).
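Each compound was tested at five concentrations against cells in 96-well plates for 48 hours. GI50: concentration for 50% inhibition of growth.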 The source made the active and inactive calls. Rule as the data show it: active = GI50 up to about 1.1 µM and inactive = higher.

Tests used:
Experiment in all cases: growth of human tumour cells (NCI), 48 h
[1] = tested on: HOP-92
[2] = tested on: HCC 2998
[3] = tested on: NCI-H226
[4] = tested on: 786-0
[5] = tested on: HOP-18
[6] = tested on: SK-OV-3
[7] = tested on: OVCAR-4
[8] = tested on: CCRF-CEM
[9] = tested on: OVCAR-3
[10] = tested on: HL-60
[11] = tested on: SF-268
[12] = tested on: SN12C
[13] = tested on: HCT-116
[14] = tested on: UACC-62
[15] = tested on: TK-10
[16] = tested on: DMS-114
[17] = tested on: NCI-H522
[18] = tested on: LOX IMVI
[19] = tested on: SNB-75
[20] = tested on: SK-MEL-2
[21] = tested on: KM12
[22] = tested on: CAKI-1
[23] = tested on: HT-29
[24] = tested on: XF498
[25] = tested on: U-251
[26] = tested on: SNB-19
[27] = tested on: IGROV-1
[28] = tested on: DLD-1
[29] = tested on: SNB-78
[30] = tested on: M14
[31] = tested on: RXF 631
[32] = tested on: K562
[33] = tested on: NCI-H460
[34] = tested on: RPMI-8226
[35] = tested on: Malme-3M
[36] = tested on: SF-539
[37] = tested on: DMS-273
[38] = tested on: M19-MEL
[39] = tested on: OVCAR-5
[40] = tested on: COLO 205
[41] = tested on: RXF 393
[42] = tested on: KM-20L2
[43] = tested on: SF-295
[44] = tested on: HOP-62
[45] = tested on: A498
[46] = tested on: LXFL 529
[47] = tested on: ACHN
[48] = tested on: HCT-15
[49] = tested on: UACC-257
[50] = tested on: SW-620
[51] = tested on: SR
[52] = tested on: UO-31
[53] = tested on: EKVX
[54] = tested on: MOLT-4
[55] = tested on: OVCAR-8
[56] = tested on: SK-MEL-28
[57] = tested on: NCI-H23
[58] = tested on: A549
[59] = tested on: SK-MEL-5

Compound: COc1cc(/C=C\c2ccc(Cl)cc2)cc(OC)c1OC
- GI50 [1]: 0.326 µM (active)
- GI50 [2]: 1.73 µM (inactive)
- GI50 [3]: 0.24 µM (active)
- GI50 [4]: 0.113 µM (active)
- GI50 [5]: > 100 µM (inactive)
- GI50 [6]: 0.228 µM (active)
- GI50 [7]: 5.74 µM (inactive)
- GI50 [8]: 0.0964 µM (active)
- GI50 [9]: 0.102 µM (active)
- GI50 [10]: 0.0251 µM (active)
- GI50 [11]: 0.843 µM (active)
- GI50 [12]: 0.508 µM (active)
- GI50 [13]: 0.0652 µM (active)
- GI50 [14]: 0.0885 µM (active)
- GI50 [15]: 38.9 µM (inactive)
- GI50 [16]: 0.394 µM (active)
- GI50 [17]: 0.111 µM (active)
- GI50 [18]: 0.175 µM (active)
- GI50 [19]: 0.188 µM (active)
- GI50 [20]: 0.245 µM (active)
- GI50 [21]: 0.173 µM (active)
- GI50 [22]: 0.384 µM (active)
- GI50 [23]: 0.0459 µM (active)
- GI50 [24]: 0.274 µM (active)
- GI50 [25]: 0.231 µM (active)
- GI50 [26]: 0.322 µM (active)
- GI50 [27]: 1.08 µM (active)
- GI50 [28]: 0.319 µM (active)
- GI50 [29]: 0.162 µM (active)
- GI50 [30]: 0.0647 µM (active)
- GI50 [31]: 0.118 µM (active)
- GI50 [32]: 0.033 µM (active)
- GI50 [33]: 0.221 µM (active)
- GI50 [34]: 0.143 µM (active)
- GI50 [35]: 0.184 µM (active)
- GI50 [36]: 0.147 µM (active)
- GI50 [37]: 0.149 µM (active)
- GI50 [38]: 0.389 µM (active)
- GI50 [39]: 26.3 µM (inactive)
- GI50 [40]: 0.443 µM (active)
- GI50 [41]: 0.2 µM (active)
- GI50 [42]: 0.105 µM (active)
- GI50 [43]: 0.0331 µM (active)
- GI50 [44]: 0.302 µM (active)
- GI50 [45]: 0.171 µM (active)
- GI50 [46]: 0.292 µM (active)
- GI50 [47]: 1.38 µM (inactive)
- GI50 [48]: 0.196 µM
- GI50 [49]: 0.804 µM (active)
- GI50 [50]: 0.0552 µM (active)
- GI50 [51]: 0.0652 µM (active)
- GI50 [52]: 0.593 µM (active)
- GI50 [53]: 0.439 µM (active)
- GI50 [54]: 0.0762 µM (active)
- GI50 [55]: 0.363 µM (active)
- GI50 [56]: 0.454 µM (active)
- GI50 [57]: 0.247 µM (active)
- GI50 [58]: 0.196 µM (active)
- GI50 [59]: 0.025 µM (active)

Compound: O=C1/C(=C/c2ccccc2)CNC/C1=C\c1ccccc1
- GI50 [1]: 8.13 µM (inactive)
- GI50 [2]: 1.87 µM (inactive)
- GI50 [3]: 2.42 µM (inactive)
- GI50 [4]: 1.57 µM (inactive)
- GI50 [5]: 11 µM (inactive)
- GI50 [6]: 2.22 µM (inactive)
- GI50 [7]: 1.43 µM (inactive)
- GI50 [8]: 1.37 µM (inactive)
- GI50 [9]: 1.42 µM (inactive)
- GI50 [10]: 0.406 µM (active)
- GI50 [11]: 2.2 µM (inactive)
- GI50 [12]: 1.69 µM (inactive)
- GI50 [13]: 0.184 µM (active)
- GI50 [14]: 1.76 µM (inactive)
- GI50 [15]: 2.4 µM (inactive)
- GI50 [16]: 2.11 µM (inactive)
- GI50 [17]: 1.02 µM (active)
- GI50 [18]: 0.643 µM (active)
- GI50 [19]: 3.38 µM (inactive)
- GI50 [20]: 3.21 µM (inactive)
- GI50 [21]: 0.962 µM (active)
- GI50 [22]: 5.65 µM (inactive)
- GI50 [23]: 0.841 µM (active)
- GI50 [24]: 2.32 µM (inactive)
- GI50 [25]: 0.36 µM (active)
- GI50 [26]: 3.28 µM (inactive)
- GI50 [27]: 1.87 µM (inactive)
- GI50 [28]: 0.329 µM (active)
- GI50 [29]: 10.4 µM (inactive)
- GI50 [30]: 1.81 µM (inactive)
- GI50 [31]: 2.91 µM (inactive)
- GI50 [32]: 0.52 µM (active)
- GI50 [33]: 1.36 µM (inactive)
- GI50 [34]: 0.221 µM (active)
- GI50 [35]: 3.26 µM (inactive)
- GI50 [36]: 1.56 µM (inactive)
- GI50 [37]: 0.721 µM (active)
- GI50 [38]: 1.02 µM (active)
- GI50 [39]: 2.44 µM (inactive)
- GI50 [40]: 1.58 µM (inactive)
- GI50 [42]: 1.39 µM (inactive)
- GI50 [43]: 2.07 µM (inactive)
- GI50 [44]: 2.84 µM (inactive)
- GI50 [45]: 1.97 µM (inactive)
- GI50 [46]: 1.49 µM (inactive)
- GI50 [47]: 2.05 µM (inactive)
- GI50 [48]: 0.612 µM
- GI50 [49]: 5.51 µM (inactive)
- GI50 [50]: 0.441 µM (active)
- GI50 [51]: 0.659 µM (active)
- GI50 [52]: 2.02 µM (inactive)
- GI50 [53]: 4.78 µM (inactive)
- GI50 [54]: 0.429 µM (active)
- GI50 [55]: 1.71 µM (inactive)
- GI50 [56]: 1.92 µM (inactive)
- GI50 [57]: 1.83 µM (inactive)
- GI50 [58]: 2.28 µM (inactive)
- GI50 [59]: 1.91 µM (inactive)

Compound: O=c1oc2c(O)c(O)cc3c(=O)oc4c(O)c(O)cc1c4c23 [ELLAGIC ACID]
- GI50 [1]: 31 µM (inactive)
- GI50 [2]: > 10 µM (inactive)
- GI50 [3]: 23.6 µM (inactive)
- GI50 [4]: 27.2 µM (inactive)
- GI50 [5]: > 10 µM (inactive)
- GI50 [6]: 73.1 µM (inactive)
- GI50 [7]: 31.6 µM (inactive)
- GI50 [8]: > 10 µM (inactive)
- GI50 [9]: 29.9 µM (inactive)
- GI50 [10]: > 10 µM (inactive)
- GI50 [11]: 56.5 µM (inactive)
- GI50 [12]: 38.1 µM (inactive)
- GI50 [13]: 92 µM (inactive)
- GI50 [14]: 40.8 µM (inactive)
- GI50 [15]: 75.2 µM (inactive)
- GI50 [16]: 33.4 µM (inactive)
- GI50 [17]: 24.1 µM (inactive)
- GI50 [18]: 93.5 µM (inactive)
- GI50 [19]: 32.4 µM (inactive)
- GI50 [20]: 78.2 µM (inactive)
- GI50 [21]: > 10 µM (inactive)
- GI50 [22]: < 0.01 µM (active)
- GI50 [23]: > 10 µM (inactive)
- GI50 [24]: 35.2 µM (inactive)
- GI50 [25]: 27.9 µM (inactive)
- GI50 [26]: 18.7 µM (inactive)
- GI50 [27]: 45.4 µM (inactive)
- GI50 [28]: > 10 µM (inactive)
- GI50 [29]: > 10 µM (inactive)
- GI50 [30]: 18.5 µM (inactive)
- GI50 [31]: > 10 µM (inactive)
- GI50 [32]: > 10 µM (inactive)
- GI50 [33]: 53.5 µM (inactive)
- GI50 [34]: > 10 µM (inactive)
- GI50 [35]: > 10 µM (inactive)
- GI50 [36]: > 10 µM (inactive)
- GI50 [37]: > 10 µM (inactive)
- GI50 [38]: > 10 µM (inactive)
- GI50 [39]: > 10 µM (inactive)
- GI50 [40]: > 10 µM (inactive)
- GI50 [41]: > 10 µM (inactive)
- GI50 [42]: 94.4 µM (inactive)
- GI50 [43]: > 10 µM (inactive)
- GI50 [44]: > 10 µM (inactive)
- GI50 [45]: 21.4 µM (inactive)
- GI50 [46]: 37 µM (inactive)
- GI50 [47]: 45.8 µM (inactive)
- GI50 [48]: 79.8 µM
- GI50 [49]: > 10 µM (inactive)
- GI50 [50]: > 10 µM (inactive)
- GI50 [51]: 71.1 µM (inactive)
- GI50 [52]: 39.7 µM (inactive)
- GI50 [53]: 57.4 µM (inactive)
- GI50 [54]: > 10 µM (inactive)
- GI50 [55]: 18.6 µM (inactive)
- GI50 [56]: > 10 µM (inactive)
- GI50 [57]: 47.9 µM (inactive)
- GI50 [58]: 68.2 µM (inactive)
- GI50 [59]: > 10 µM (inactive)
